Reference: the NIST ThermoML archive (doi:10.1021/je030226s)
Numbers after ± are expanded uncertainties.

Key:
[1] = xn = mol fraction of the nth substance listed; settings: 101.32 kPa, Liquid
[2] = refractive index (Na D-line) (dimensionless); xn = mol fraction of the nth substance listed; settings: 101.32 kPa, Liquid

CCCCCl [1-chlorobutane] + CCCO
Settings | mass density, 288.15 K [kg/m3] | mass density, 298.15 K [kg/m3] | mass density, 308.15 K [kg/m3] | refractive index, 288.15 K | refractive index, 298.15 K | refractive index, 308.15 K | viscosity, 288.15 K [mPa·s] | viscosity, 298.15 K [mPa·s] | viscosity, 308.15 K [mPa·s]
[1], x2 = 0 | 892.2 ± 0.6 | 881 ± 0.7 | 869.7 ± 0.7 | – | – | – | 0.472 ± 0.009 | 0.423 ± 0.008 | 0.382 ± 0.008
[1], x2 = 0.05 | 888.3 ± 0.6 | 877.2 ± 0.7 | 866 ± 0.7 | – | – | – | 0.473 ± 0.009 | 0.426 ± 0.008 | 0.384 ± 0.008
[1], x2 = 0.1 | 884.9 ± 0.6 | 873.8 ± 0.7 | 862.6 ± 0.7 | – | – | – | 0.495 ± 0.009 | 0.44 ± 0.008 | 0.395 ± 0.008
[1], x2 = 0.2 | 878.2 ± 0.7 | 867.3 ± 0.7 | 856.2 ± 0.7 | – | – | – | 0.525 ± 0.009 | 0.461 ± 0.009 | 0.409 ± 0.008
[1], x2 = 0.3 | 871.2 ± 0.7 | 860.5 ± 0.7 | 849.7 ± 0.8 | – | – | – | 0.587 ± 0.01 | 0.511 ± 0.009 | 0.447 ± 0.008
[1], x2 = 0.4 | 864 ± 0.7 | 853.5 ± 0.7 | 842.9 ± 0.8 | – | – | – | 0.672 ± 0.01 | 0.576 ± 0.009 | 0.498 ± 0.009
[1], x2 = 0.5 | 856.3 ± 0.7 | 846.1 ± 0.8 | 835.8 ± 0.8 | – | – | – | 0.795 ± 0.011 | 0.67 ± 0.01 | 0.572 ± 0.009
[1], x2 = 0.6 | 848.1 ± 0.8 | 838.3 ± 0.8 | 828.3 ± 0.8 | – | – | – | 0.965 ± 0.013 | 0.802 ± 0.011 | 0.673 ± 0.01
[1], x2 = 0.7 | 839.2 ± 0.8 | 829.8 ± 0.8 | 820.3 ± 0.8 | – | – | – | 1.202 ± 0.015 | 0.977 ± 0.013 | 0.804 ± 0.011
[1], x2 = 0.8 | 829.6 ± 0.8 | 820.7 ± 0.8 | 811.5 ± 0.9 | – | – | – | 1.503 ± 0.018 | 1.206 ± 0.015 | 0.989 ± 0.013
[1], x2 = 0.9 | 819.2 ± 0.8 | 810.7 ± 0.9 | 802 ± 0.9 | – | – | – | 1.94 ± 0.023 | 1.531 ± 0.018 | 1.229 ± 0.015
[1], x2 = 0.95 | 813.5 ± 0.9 | 805.3 ± 0.9 | 796.9 ± 0.9 | – | – | – | 2.2 ± 0.026 | 1.729 ± 0.021 | 1.375 ± 0.017
[2], x2 = 0 | – | – | – | 1.4045 ± 0.0006 | 1.3993 ± 0.0006 | 1.3941 ± 0.0006 | – | – | –
[2], x2 = 0.05 | – | – | – | 1.4036 ± 0.0006 | 1.3984 ± 0.0006 | 1.3931 ± 0.0006 | – | – | –
[2], x2 = 0.1 | – | – | – | 1.4028 ± 0.0006 | 1.3976 ± 0.0006 | 1.3923 ± 0.0006 | – | – | –
[2], x2 = 0.2 | – | – | – | 1.4013 ± 0.0006 | 1.3962 ± 0.0006 | 1.3909 ± 0.0006 | – | – | –
[2], x2 = 0.3 | – | – | – | 1.3998 ± 0.0006 | 1.3948 ± 0.0006 | 1.3895 ± 0.0006 | – | – | –
[2], x2 = 0.4 | – | – | – | 1.3984 ± 0.0006 | 1.3934 ± 0.0006 | 1.3882 ± 0.0006 | – | – | –
[2], x2 = 0.5 | – | – | – | 1.3968 ± 0.0006 | 1.3919 ± 0.0006 | 1.3869 ± 0.0006 | – | – | –
[2], x2 = 0.6 | – | – | – | 1.3952 ± 0.0006 | 1.3904 ± 0.0006 | 1.3855 ± 0.0006 | – | – | –
[2], x2 = 0.7 | – | – | – | 1.3934 ± 0.0006 | 1.3888 ± 0.0006 | 1.384 ± 0.0006 | – | – | –
[2], x2 = 0.8 | – | – | – | 1.3914 ± 0.0006 | 1.387 ± 0.0006 | 1.3824 ± 0.0006 | – | – | –
[2], x2 = 0.9 | – | – | – | 1.3892 ± 0.0006 | 1.385 ± 0.0006 | 1.3807 ± 0.0006 | – | – | –
[2], x2 = 0.95 | – | – | – | 1.3881 ± 0.0006 | 1.384 ± 0.0006 | 1.3798 ± 0.0006 | – | – | –
